Measurements published in PubChem BioAssay (NCI).
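Five concentrations, 48 hours, 96-well plates. TGI: total growth inhibition.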

Experiments:
Assay in all cases: NCI tumour cell line growth inhibition, 48 h
HCT-15 colon = tested on: HCT-15 colon
SN12C renal = tested on: SN12C renal
TK-10 renal = tested on: TK-10 renal
HT29 colon = tested on: HT29 colon
SNB-19 CNS = tested on: SNB-19 CNS
EKVX NSCLC = tested on: EKVX NSCLC
SF-295 CNS = tested on: SF-295 CNS
COLO 205 colon = tested on: COLO 205 colon
HCT-116 colon = tested on: HCT-116 colon
MOLT-4 leukemia = tested on: MOLT-4 leukemia
SR leukemia = tested on: SR leukemia
UACC-62 melanoma = tested on: UACC-62 melanoma
DLD-1 colon = tested on: DLD-1 colon
UACC-257 melanoma = tested on: UACC-257 melanoma
U251 CNS = tested on: U251 CNS
LOX IMVI melanoma = tested on: LOX IMVI melanoma
OVCAR-5 ovarian = tested on: OVCAR-5 ovarian
K-562 leukemia = tested on: K-562 leukemia
DMS 273 small cell lung = tested on: DMS 273 small cell lung
OVCAR-8 ovarian = tested on: OVCAR-8 ovarian
XF 498 CNS = tested on: XF 498 CNS
SF-268 CNS = tested on: SF-268 CNS
LXFL 529 NSCLC = tested on: LXFL 529 NSCLC
HL-60(TB) leukemia = tested on: HL-60(TB) leukemia
A498 renal = tested on: A498 renal
CAKI-1 renal = tested on: CAKI-1 renal
SNB-75 CNS = tested on: SNB-75 CNS
RXF 393 renal = tested on: RXF 393 renal
HOP-92 NSCLC = tested on: HOP-92 NSCLC
KM12 colon = tested on: KM12 colon
NCI-H226 lung = tested on: NCI-H226 lung
NCI-H522 lung = tested on: NCI-H522 lung
A549 NSCLC = tested on: A549 NSCLC
UO-31 renal = tested on: UO-31 renal
SNB-78 CNS = tested on: SNB-78 CNS
HCC-2998 colon = tested on: HCC-2998 colon
M19-MEL melanoma = tested on: M19-MEL melanoma
NCI-H460 lung = tested on: NCI-H460 lung
SK-MEL-5 melanoma = tested on: SK-MEL-5 melanoma
OVCAR-3 ovarian = tested on: OVCAR-3 ovarian
OVCAR-4 ovarian = tested on: OVCAR-4 ovarian
HOP-18 NSCLC = tested on: HOP-18 NSCLC
IGROV1 ovarian = tested on: IGROV1 ovarian
HOP-62 NSCLC = tested on: HOP-62 NSCLC
KM20L2 colon = tested on: KM20L2 colon
SW-620 colon = tested on: SW-620 colon
DMS 114 small cell lung = tested on: DMS 114 small cell lung
MALME-3M melanoma = tested on: MALME-3M melanoma
ACHN renal = tested on: ACHN renal
SK-MEL-2 melanoma = tested on: SK-MEL-2 melanoma
RPMI-8226 leukemia = tested on: RPMI-8226 leukemia
786-0 renal = tested on: 786-0 renal
CCRF-CEM leukemia = tested on: CCRF-CEM leukemia
SK-MEL-28 melanoma = tested on: SK-MEL-28 melanoma
SF-539 CNS = tested on: SF-539 CNS
NCI-H23 lung = tested on: NCI-H23 lung
SK-OV-3 ovarian = tested on: SK-OV-3 ovarian
M14 melanoma = tested on: M14 melanoma
RXF-631 renal = tested on: RXF-631 renal

Measured: TGI

CC(C)C(=O)N1C(=O)O[C@@H](c2ccccc2)[C@H]1C
> 100 µM: HCT-15 colon | SN12C renal | TK-10 renal | HT29 colon | EKVX NSCLC | SF-295 CNS | COLO 205 colon | HCT-116 colon | MOLT-4 leukemia | SR leukemia | UACC-62 melanoma | DLD-1 colon | UACC-257 melanoma | U251 CNS | LOX IMVI melanoma | OVCAR-5 ovarian | K-562 leukemia | DMS 273 small cell lung | OVCAR-8 ovarian | XF 498 CNS | SF-268 CNS | LXFL 529 NSCLC | HL-60(TB) leukemia | A498 renal | SNB-75 CNS | RXF 393 renal | HOP-92 NSCLC | KM12 colon | NCI-H226 lung | NCI-H522 lung | A549 NSCLC | UO-31 renal | SNB-78 CNS | HCC-2998 colon | M19-MEL melanoma | NCI-H460 lung | SK-MEL-5 melanoma | OVCAR-3 ovarian | OVCAR-4 ovarian | HOP-18 NSCLC | IGROV1 ovarian | HOP-62 NSCLC | KM20L2 colon | SW-620 colon | DMS 114 small cell lung | MALME-3M melanoma | ACHN renal | SK-MEL-2 melanoma | RPMI-8226 leukemia | 786-0 renal | CCRF-CEM leukemia | SK-MEL-28 melanoma | SF-539 CNS | NCI-H23 lung | SK-OV-3 ovarian | M14 melanoma
97.9 µM: CAKI-1 renal
> 64.7 µM: SNB-19 CNS

CCOC(=O)C1C(=O)C(C(=O)OCC)C(c2ccccc2)N(C)C1c1ccccc1 (stereo unspecified)
> 100 µM: HCT-15 colon | SN12C renal | TK-10 renal | HT29 colon | SNB-19 CNS | EKVX NSCLC | SF-295 CNS | COLO 205 colon | HCT-116 colon | MOLT-4 leukemia | SR leukemia | UACC-62 melanoma | DLD-1 colon | UACC-257 melanoma | U251 CNS | LOX IMVI melanoma | OVCAR-5 ovarian | K-562 leukemia | DMS 273 small cell lung | OVCAR-8 ovarian | SF-268 CNS | LXFL 529 NSCLC | HL-60(TB) leukemia | A498 renal | CAKI-1 renal | SNB-75 CNS | RXF 393 renal | HOP-92 NSCLC | KM12 colon | NCI-H226 lung | NCI-H522 lung | A549 NSCLC | UO-31 renal | SNB-78 CNS | M19-MEL melanoma | NCI-H460 lung | SK-MEL-5 melanoma | OVCAR-3 ovarian | OVCAR-4 ovarian | IGROV1 ovarian | HOP-62 NSCLC | KM20L2 colon | SW-620 colon | DMS 114 small cell lung | MALME-3M melanoma | ACHN renal | SK-MEL-2 melanoma | 786-0 renal | CCRF-CEM leukemia | SK-MEL-28 melanoma | SF-539 CNS | NCI-H23 lung | RXF-631 renal | SK-OV-3 ovarian | M14 melanoma

COc1ccc(NC(=O)C2C(=O)N(c3ccc(OC)cc3)C(=O)/C2=N\N)cc1 (stereo unspecified)
> 100 µM: HCT-15 colon | SN12C renal | TK-10 renal | HT29 colon | SNB-19 CNS | EKVX NSCLC | SF-295 CNS | COLO 205 colon | HCT-116 colon | MOLT-4 leukemia | SR leukemia | UACC-62 melanoma | DLD-1 colon | UACC-257 melanoma | U251 CNS | OVCAR-5 ovarian | K-562 leukemia | OVCAR-8 ovarian | SF-268 CNS | LXFL 529 NSCLC | HL-60(TB) leukemia | A498 renal | RXF 393 renal | HOP-92 NSCLC | KM12 colon | NCI-H522 lung | A549 NSCLC | UO-31 renal | SNB-78 CNS | HCC-2998 colon | M19-MEL melanoma | NCI-H460 lung | SK-MEL-5 melanoma | HOP-18 NSCLC | IGROV1 ovarian | HOP-62 NSCLC | KM20L2 colon | SW-620 colon | DMS 114 small cell lung | MALME-3M melanoma | ACHN renal | SK-MEL-2 melanoma | 786-0 renal | CCRF-CEM leukemia | SK-MEL-28 melanoma | SF-539 CNS | NCI-H23 lung | RXF-631 renal | M14 melanoma

CCOc1cc2c[n+](C)c3c4cc(OC)c(OC)cc4ccc3c2cc1OC
40.1 µM: RXF-631 renal
32.2 µM: OVCAR-8 ovarian
> 100 µM: HCT-15 colon | SN12C renal | TK-10 renal | HT29 colon | SNB-19 CNS | EKVX NSCLC | SF-295 CNS | COLO 205 colon | HCT-116 colon | MOLT-4 leukemia | SR leukemia | DLD-1 colon | UACC-257 melanoma | U251 CNS | LOX IMVI melanoma | OVCAR-5 ovarian | K-562 leukemia | SF-268 CNS | LXFL 529 NSCLC | HL-60(TB) leukemia | CAKI-1 renal | SNB-75 CNS | RXF 393 renal | HOP-92 NSCLC | KM12 colon | NCI-H226 lung | NCI-H522 lung | A549 NSCLC | UO-31 renal | SNB-78 CNS | HCC-2998 colon | M19-MEL melanoma | NCI-H460 lung | SK-MEL-5 melanoma | OVCAR-3 ovarian | OVCAR-4 ovarian | HOP-18 NSCLC | IGROV1 ovarian | HOP-62 NSCLC | KM20L2 colon | SW-620 colon | DMS 114 small cell lung | MALME-3M melanoma | ACHN renal | SK-MEL-2 melanoma | RPMI-8226 leukemia | CCRF-CEM leukemia | SK-MEL-28 melanoma | SF-539 CNS | NCI-H23 lung | M14 melanoma
35.1 µM: 786-0 renal
